In the oligonucleotide strings, read from the 5' end, every base follows the letter of its sugar. An asterisk marks phosphorothioate; unmarked linkages are phosphodiester. Other units and linkages are bracketed, terminal groups are in braces. A string of capitals states the bases alone. e = 2'-O-(2-methoxyethyl) (MOE); [5mC] = 5-methylcytosine; d = 2'-deoxy (DNA)

For one series, the system named is human Factor 7 mRNA. In words: Antisense inhibition of human Factor 7 mRNA in HepB3 cells, lipofectin, 50 nM, real-time RT-PCR. The settings on record: Example 1; HepB3 cells, lipofectin, 50 nM, ~24 h, relative to untreated control cells. The class given is cell-based. In a few lines:
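Percent inhibition, untreated cells as reference: derived from RNA collected about 24 hours post-transfection of 4,000-cell wells, with the human RTS 2927 primer probe set and adjustment for total RNA content (RIBOGREEN®).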
Take “407627 (antisense eG*e[5mC]*e[5mC]*e[5mC]*eA*dG*d[5mC]*dA*d[5mC]*d[5mC]*dG*d[5mC]*dG*dA*dT*e[5mC]*eA*eG*eG*eT) [compound 407627]”: the “% Inhibition (human Factor 7 mRNA)” value is reported as 79%.

On to “407921 (antisense e[5mC]*e[5mC]*eA*e[5mC]*eA*dG*dG*d[5mC]*d[5mC]*dA*dG*dG*dG*d[5mC]*dT*eG*e[5mC]*eT*eG*eG) [compound 407921]”, for which the “% Inhibition (human Factor 7 mRNA)” value is 65%. “407611 (antisense eT*e[5mC]*eT*e[5mC]*eA*d[5mC]*dA*dG*dT*dT*d[5mC]*d[5mC]*dG*dG*d[5mC]*e[5mC]*e[5mC]*eT*e[5mC]*eG) [compound 407611]”: the “% Inhibition (human Factor 7 mRNA)” value was 82%. For the substance “403093 (antisense eG*eA*eG*eA*e[5mC]*d[5mC]*d[5mC]*dT*dG*dG*dT*dG*dT*dA*d[5mC]*eA*e[5mC]*e[5mC]*e[5mC]*e[5mC]) [compound 403093]”, the “% Inhibition (human Factor 7 mRNA)” value is reported as 75%.

On to “407922 (antisense eT*e[5mC]*eG*eA*e[5mC]*dG*d[5mC]*dA*dG*d[5mC]*d[5mC]*dT*dT*dG*dG*e[5mC]*eT*eT*eT*e[5mC]) [compound 407922]”, for which the “% Inhibition (human Factor 7 mRNA)” value is recorded as 82%. Take “407639 (antisense eT*eT*eT*eG*e[5mC]*dA*dG*d[5mC]*d[5mC]*dA*d[5mC]*dT*d[5mC]*dG*dA*eT*eG*eT*eA*e[5mC]) [compound 407639]”: the “% Inhibition (human Factor 7 mRNA)” value came to 76%. As to “407963 (antisense eA*eG*eA*eG*e[5mC]*dA*dG*dG*dG*dT*dG*d[5mC]*d[5mC]*dT*dT*eG*eG*eA*eA*eG) [compound 407963]”, the “% Inhibition (human Factor 7 mRNA)” value worked out at 33%.

“407925 (antisense eG*eA*eA*eT*eA*dT*dA*dT*dG*dG*dG*dA*dT*dT*dT*eG*eG*eT*eG*e[5mC]) [compound 407925]”: the “% Inhibition (human Factor 7 mRNA)” value is given as 64%.

Take “407917 (antisense eA*e[5mC]*eA*e[5mC]*e[5mC]*d[5mC]*d[5mC]*dA*dA*dA*dG*dT*dG*dG*d[5mC]*e[5mC]*e[5mC]*eA*e[5mC]*eG) [compound 407917]”: the “% Inhibition (human Factor 7 mRNA)” value worked out at 70%.

The same series, now with this note: Example 4; HepB3 cells, lipofectin, 50 nM, ~24 h, relative to untreated control.
On to “422187 (antisense e[5mC]*eG*eG*dA*dA*dG*dA*dA*dG*dG*dG*dA*d[5mC]*dG*dG*dA*dA*eG*eG*eT) [compound 422187]”, for which the “% Inhibition (human Factor 7 mRNA)” value came to 28%. Consider “422189 (antisense e[5mC]*eG*e[5mC]*dG*dG*dA*dA*dG*dA*dA*dG*dG*dG*dA*d[5mC]*dG*dG*eA*eA*eG) [compound 422189]”, for which the “% Inhibition (human Factor 7 mRNA)” value turned out to be 0%.

Consider “422126 (antisense eA*e[5mC]*eT*eG*eA*dG*d[5mC]*dG*d[5mC]*dG*dG*dA*dA*dG*dA*eA*eG*eG*eG*eA) [compound 422126]”, for which the “% Inhibition (human Factor 7 mRNA)” value is recorded as 22%. The same measure, in the same setting: the value for “422276 (antisense eG*eG*dT*dT*dA*d[5mC]*dT*dG*dA*dG*d[5mC]*dG*d[5mC]*dG*dG*eA*eA*eG*eA*eA) [compound 422276]” was 66%.

As for “422128 (antisense eT*eT*eA*e[5mC]*eT*dG*dA*dG*d[5mC]*dG*d[5mC]*dG*dG*dA*dA*eG*eA*eA*eG*eG) [compound 422128]”, the “% Inhibition (human Factor 7 mRNA)” value was found to be 27%.

Staying with this series, now noted: Example 6 microwalk, nucleobases 15098 to 15122 of SEQ ID NO: 1; HepB3, lipofectin, 50 nM, ~24 h.
With “422287 (antisense e[5mC]*eA*dG*d[5mC]*dA*d[5mC]*dA*d[5mC]*dA*dT*dG*dG*dA*dG*dT*e[5mC]*eA*eG*e[5mC]*eA) [compound 422287]”, the “% Inhibition (human Factor 7 mRNA)” value is given as 41%.

The same series, now with this note: HepB3 cells, lipofectin, 50 nM antisense oligonucleotide, approximately 24 hours, primer probe set RTS 2927, relative to untreated control.
In the case of “416483 (antisense eT*eG*eT*eG*eA*dG*dG*dG*dT*dT*d[5mC]*dA*dT*dT*dT*e[5mC]*eA*eG*eT*eG) [compound 416483]”, the “% Inhibition of human Factor 7 mRNA levels” value stood at 22%. Turning to “416445 (antisense eT*eA*e[5mC]*eT*eG*d[5mC]*dT*d[5mC]*dA*d[5mC]*dA*dG*d[5mC]*d[5mC]*dG*e[5mC]*e[5mC]*eG*eT*eT) [compound 416445]”, the “% Inhibition of human Factor 7 mRNA levels” value stood at 57%.

Turning to “416454 (antisense e[5mC]*eG*eT*eG*e[5mC]*dT*d[5mC]*dG*d[5mC]*d[5mC]*d[5mC]*dA*dG*d[5mC]*dA*e[5mC]*e[5mC]*eG*e[5mC]*eG) [compound 416454]”, the “% Inhibition of human Factor 7 mRNA levels” value was determined as 56%. Turning to “416427 (antisense e[5mC]*e[5mC]*e[5mC]*eT*eG*dA*dA*dG*d[5mC]*d[5mC]*d[5mC]*dA*dA*dG*d[5mC]*eA*eG*eA*eA*eG) [compound 416427]”, the “% Inhibition of human Factor 7 mRNA levels” value is reported as 5%. “416537 (antisense eT*eG*eA*e[5mC]*e[5mC]*dA*d[5mC]*dT*d[5mC]*dT*dT*d[5mC]*d[5mC]*dG*dA*eG*e[5mC]*eA*eG*e[5mC]) [compound 416537]”: the “% Inhibition of human Factor 7 mRNA levels” value stood at 55%. “416475 (antisense e[5mC]*eT*e[5mC]*eA*eG*d[5mC]*dT*dG*dG*dG*d[5mC]*dT*dG*dT*d[5mC]*eT*eG*e[5mC]*e[5mC]*eT) [compound 416475]”: the “% Inhibition of human Factor 7 mRNA levels” value was 70%.

In the case of “416500 (antisense e[5mC]*eT*eG*eA*eA*d[5mC]*dA*d[5mC]*d[5mC]*d[5mC]*d[5mC]*dA*dG*d[5mC]*dT*eG*eA*eG*eA*eG) [compound 416500]”, the “% Inhibition of human Factor 7 mRNA levels” value came out at 1%.

On to “416440 (antisense eG*eG*eA*e[5mC]*eT*dG*dG*dA*dG*d[5mC]*dT*dG*dG*dT*d[5mC]*e[5mC]*eT*eT*eG*e[5mC]) [compound 416440]”, for which the “% Inhibition of human Factor 7 mRNA levels” value was determined as 44%.

As to “416514 (antisense eG*eT*eA*eT*eT*dT*dT*d[5mC]*dT*dG*dA*dT*dG*dT*dG*eA*eA*eA*eA*e[5mC]) [compound 416514]”, the “% Inhibition of human Factor 7 mRNA levels” value is on record as 8%.

Staying with this series, now noted: HepB3 cells; gapmers (5-10-5, 3-14-3, 2-13-5 MOE) targeted to nucleobases 4868 to 4899 of SEQ ID NO: 1.
As for “422224 (antisense eG*eG*eA*dG*d[5mC]*d[5mC]*d[5mC]*dG*dA*dG*dT*dT*d[5mC]*dT*dG*d[5mC]*dA*eG*eG*eA) [compound 422224]”, the “% Inhibition of human Factor 7 mRNA levels” value was 62%.

Turning to “422298 (antisense eG*e[5mC]*d[5mC]*d[5mC]*dG*dA*dG*dT*dT*d[5mC]*dT*dG*d[5mC]*dA*dG*eG*eA*eG*e[5mC]*eG) [compound 422298]”, the “% Inhibition of human Factor 7 mRNA levels” value amounted to 62%.

With “422221 (antisense eG*e[5mC]*e[5mC]*d[5mC]*dG*dA*dG*dT*dT*d[5mC]*dT*dG*d[5mC]*dA*dG*dG*dA*eG*e[5mC]*eG) [compound 422221]”, the “% Inhibition of human Factor 7 mRNA levels” value is given as 59%. For the substance “422301 (antisense eG*eG*dA*dG*d[5mC]*d[5mC]*d[5mC]*dG*dA*dG*dT*dT*d[5mC]*dT*dG*e[5mC]*eA*eG*eG*eA) [compound 422301]”, the “% Inhibition of human Factor 7 mRNA levels” value came out at 67%. Regarding “422222 (antisense eA*eG*e[5mC]*d[5mC]*d[5mC]*dG*dA*dG*dT*dT*d[5mC]*dT*dG*d[5mC]*dA*dG*dG*eA*eG*e[5mC]) [compound 422222]”, the “% Inhibition of human Factor 7 mRNA levels” value is 55%.

Staying with this series, now noted: HepB3 cells; gapmers targeted to nucleobases 11830 to 11869 of SEQ ID NO: 1 (Table 9).
As to “422172 (antisense eT*eG*eG*d[5mC]*dT*dG*dA*dG*dG*dA*dG*dA*d[5mC]*dA*dA*dT*dG*eG*eT*e[5mC]) [compound 422172]”, the “% Inhibition of human Factor 7 mRNA levels” value was found to be 39%. As to “422155 (antisense eG*eT*e[5mC]*dA*dG*dG*dG*d[5mC]*dT*dG*dG*dT*dT*dT*dT*dG*dG*eA*eG*eG) [compound 422155]”, the “% Inhibition of human Factor 7 mRNA levels” value is listed as 34%. Same read-out and setting: to “422106 (antisense e[5mC]*eT*eG*eG*e[5mC]*dT*dG*dA*dG*dG*dA*dG*dA*d[5mC]*dA*eA*eT*eG*eG*eT) [compound 422106]” belongs 32%; to “422098 (antisense eG*eG*eA*eG*eA*d[5mC]*dA*dA*dT*dG*dG*dT*d[5mC]*dA*dG*eG*eG*e[5mC]*eT*eG) [compound 422098]”, 53%; to “422100 (antisense eG*eA*eG*eG*eA*dG*dA*d[5mC]*dA*dA*dT*dG*dG*dT*d[5mC]*eA*eG*eG*eG*e[5mC]) [compound 422100]”, 59%.

Still in this series, the particulars now being: HepB3 cells; gapmers targeted to nucleobases 13760 to 13789 of SEQ ID NO: 1 (Table 10).
Take “422114 (antisense e[5mC]*eG*e[5mC]*e[5mC]*eA*d[5mC]*d[5mC]*d[5mC]*dG*d[5mC]*d[5mC]*dG*dG*d[5mC]*dT*e[5mC]*eT*eG*e[5mC]*eT) [compound 422114]”: the “% Inhibition of human Factor 7 mRNA levels” value is 50%. Same read-out and setting: to “422256 (antisense e[5mC]*eA*d[5mC]*d[5mC]*d[5mC]*dG*d[5mC]*d[5mC]*dG*dG*d[5mC]*dT*d[5mC]*dT*dG*e[5mC]*eT*e[5mC]*eA*eT) [compound 422256]” belongs 29%.

The series is the same for the next values; noted with them: HepB3 cells; gapmers targeted to nucleobases 14707 to 14732 of SEQ ID NO: 1 (Table 11).
“422206 (antisense e[5mC]*eA*eG*d[5mC]*dA*dG*d[5mC]*d[5mC]*dT*dG*dA*dG*dG*d[5mC]*d[5mC]*dA*dG*e[5mC]*eA*eG) [compound 422206]”: the “% Inhibition of human Factor 7 mRNA levels” value amounted to 65%.

The series is the same for the next values; noted with them: HepB3 cells; gapmers targeted to nucleobases 15188 to 15211 of SEQ ID NO: 1 (Table 13).
In the case of “422153 (antisense e[5mC]*eA*eT*dG*d[5mC]*dA*dT*dG*dG*dT*dG*dA*dT*dG*d[5mC]*dT*dT*e[5mC]*eT*eG) [compound 422153]”, the “% Inhibition of human Factor 7 mRNA levels” value turned out to be 67%.
